Results from patent publication US11345659B2, “Pipecolic esters for inhibition of the proteasome” (THE BOARD OF REGENTS OF THE UNIVERSY OF TEXAS SYSTEM, priority 2018, dated 2022).
Where two headings read alike, the source gives them in different places.

Molecular target: T1, 20 S human housekeeping proteasome (Homo sapiens, UniProt P25787+P25789)
T1 construct: purified from erythrocytes; purchased Enzo Life Sciences, Inc. (Farmingdale, N.Y.); host or cells: human erythrocytes
Assay: ChT-L peptidase activity of 20 S proteasome activated with Rpt5 peptide
Assay type: biochemical
Method: Human housekeeping 20 S and 26 S and complexes purified from erythrocytes were purchased from Enzo Life Sciences, Inc. (Farmingdale, N.Y.). The 1 mg/ml stock 20 S proteasome was diluted to 0.2 mg/ml working solution in 50 mM Tris/HCl, pH 8 containing 20% glycerol (dilution buffer). For the 26 S proteasome stock, the dilution buffer was supplemented with 2 mM ATP, 1 mM MgCl2, and 1 mM DTT (dithiothreitol). The ChT-L peptidase activity was measured as arbitrary intensity units of fluorescence emitted by 7-amino-4-methylcoumarin (AMC) released from the canonical model peptide substrate succinyl-LeuLeuValTyr-methylcoumarin (SucLLVY-MCA; Bachem Bioscience Inc., Philadelphia, Pa.), used at concentration of 100 μM. Free AMC (Sigma-Aldrich, St. Louis, Mo.) was used as the standard. The Rpt5 C-terminal peptide was synthesized (standard solid-phase peptide chemistry) and purified to at least 98% purity by GenScript (Piscataway, N.J.). The Rpt5 peptide and the peptide substrate were dissolved in dimethylsulfoxide (DMSO) and such stock solutions were stored at −20° C. The total concentration of DMSO in final reaction mixtures never exceeded 3% (vol/vol).
The reaction was carried out in 96-well plates, in 100 μL of reaction mixture, for 1 hour at 37° C. In the case of 20 S proteasome, the reaction mixture consisted of 45 mM Tris/HCl, pH 8, 100 mM KCl with premixed 10 μM Rpt5 peptide and 100 μM Suc-LLVY-MCA, to which 200 ng (nearly […]) of proteasome and desired concentration of tested compounds in 1 μL of DMSO were added. To test the activity of 26 S proteasome under conditions challenging coordination of the three pairs of peptidase active centers, a mixture of three canonical substrates specific for the ChT-L (SucLLVY-MCA), trypsin-like (T-L; BocLRR-MCA) and caspase-like (Casp-L; Z-LLE-MCA) was used with each of the substrates at 33.3 μM (100 μM of the total substrate concentration). The reaction mixture in this case consisted of 50 mM Tris/HCl, pH 8, 20 mM NaCl, premixed with the substrates and 2 mM ATP, to which 200 ng (nearly 0.1 nmol) of the 26 S working solution and desired concentration of tested compounds in 0.5 μL of DMSO were added. The reaction rates were calculated from a linear segment of kinetic curves constructed from measurements in 1-minutes intervals (Fluoroskan Ascent plate reader; Thermo Fisher Scientific Inc., Waltham, Mass.). Reaction rates were calculated using a linear fit executed by Slope Analyzer and Enzyme Kinetics applications launched within Origin Pro 2017 (OriginLab). Specific activity of the control 20 S proteasome activated with the Rpt5 peptide was in the range of 1.4 to 2.3 nanomoles of AMC product released by 1 mg of 20 S per second (1.95±0.24; n=18). Specific activity of the control 26 S proteasome challenged with three substrates reached on average 0.28±0.06 nanomoles of AMC product released by 1 mg of the enzyme per second (n=6). For comparison, degradation of the canonical Suc-LLVY-MCA substrate by the control 26 S proteasome preceded with a rate in the range of 0.6-0.8 nanomoles of AMC released per mg of the enzyme per second. The data are presented as mean±SD or as a representative set from at least 3 independent experiments.
The compounds were evaluated using the 20 S human housekeeping proteasome. It was activated with the Rpt5 derived 10-residue peptide that contains the C-terminal HbYX (hydrophobic-Tyr-any AA) motif activating the proteasome in trans and to some extend mimic the activation by the 19 S regulatory particle (Osmulski and Gaczynska (2013) Molecular pharmacology 84: 104-113; Smith et al. (2006) J. Struct. Biol. 156: 72-83; Smith et al. (2007) Mol. Cell 27: 731-744). Proteolytic activity was monitored over time using a fluorogenic peptide substrate specific for the chymotrypsin-like active center (ChT-L, Suc-LLVY-AMC) in the presence of a concentration range of the inhibitors. […]

COc1cc(CCCOC(=O)[C@@H]2CCCCN2C(=O)OCc2ccccc2)cc(OC)c1OC [Compound 3, 1-benzyl 2-(3-(3,4,5-trimethoxyphenyl)propyl) (S)-piperidine-1,2-dicarboxylate]
IC50 (ChT-L, Suc-LLVY-AMC substrate, 20 S activated with Rpt5 peptide, read-out: IC50): 2 µM
IC50 (summary of FIG. 3A and FIG. 3B, read-out: in vitro determined IC50 values for peptidase activities): 2 to 3 µM
remaining ChT-L activity (tRpt5 added first, n=3): 53%±7%
